Laboratory results: PMC8776094, “Reactive Oxygen Species Production Is Responsible for Antineoplastic Activity of Osmium, Ruthenium, Iridium and Rhodium Half-Sandwich Type Complexes with Bidentate Glycosyl Heterocyclic Ligands in Various Cancer Cell Models” (International Journal of Molecular Sciences, 2022)
Values joined by “and” are separate entries in the source; they are usually repeats but may differ in a detail not shown here. Equal entries are not always repeated. Where two headings read alike, the source gives them in different places.

Key:
[1] = Determination of the distribution coefficients (logD), n-octanol/PBS; type: physicochemical; conditions: n-octanol / PBS pH = 7.40, rt
Protocol: Before starting the experiments, n-octanol was saturated with an aqueous PBS solution (pH = 7.40) and vice versa. A solution of the appropriate complex (approximately 0.2–0.3 mg) in a mixture of 2.50 mL pre-saturated n-octanol and 2.50 mL pre-saturated PBS buffer was made, and the resulting mixture was then vigorously stirred for 3 days at rt. Based on our previous NMR stability experiments, this time is long enough to reach equilibrium among the various ionic complex species. Due to the lipophilic/hydrophilic features of the complexes, those with benzoyl protection could primarily be found in the n-octanol, while the complexes with O-peracetylated and O-deprotected ligands were in the aqueous PBS phase. The corresponding separated solution was centrifuged (ScanSpeed 406G instrument, 4000 RPM for 5 min) and the absorption of the ”stock solution” was determined (VWR UV-1600PC Spectrophotometer, 270–420 nm). Then, 2.00 mL of the stock solution was vigorously stirred with 16.00 mL of pre-saturated n-octanol or PBS solution. After one day had passed, the phases were separated, centrifuged, and the absorption of the solution was measured again. From the absorption difference of the stock solutions, the distribution coefficient (D) was determined using previously described formulae [71].

[2] = test system: A2780 ovarian cancer cells; experiment: SRB assay, 48 h, cytostasis, A2780; type: cell-based; conditions: 48 h treatment
Protocol: (§1) The compounds were tested between 0.001694 and 33.3333 µM, using a 4-hour-long MTT test to assess rapid toxicity and a 48-hour-long SRB assay to assess the long-term effects of the inhibition of proliferation (cytostasis). The MTT assay assesses the activity of mitochondrial complex I and detects rapid, direct toxicity, as well as indicating apoptosis and necrosis. The SRB assay measures the total protein content that is proportional to cell numbers; therefore, the assay can detect changes in cell numbers and can thus be used as a readout for cell proliferation. The SRB assay was performed after 48 h of treatment (with the exception of L428 cells, which were tested for 96 h due to their slower proliferation rate). In this setting, the SRB assay informs us of long-term changes to cell proliferation. We assessed the maximal inhibition within that concentration range, and descriptive statistics were performed. We performed a one-way ANOVA, followed by the Kruskal–Wallis test, regardless of the normal or non-normal distribution of the data. Due to the large number of significance values, the results of the significance calculations are provided in an Excel spreadsheet at https://figshare.com/s/28d14597d5041f08eb08 (accessed on 6 January 2022), among other primary data of the study. Where possible, nonlinear regression was performed on the curves to determine the IC50 values ((inhibitor) vs. response—variable slope (four parameters) method with Graphpad v8.0.1). […] In Table 5, we added the IC50 values that we determined for a set of 4 active ruthenium half-sandwich complexes we identified previously, to be used in subsequent structure-activity relationship (SAR) analyses.
(§2) A2780 cells were cultured in RMPI 1640 medium, supplemented with 10% fetal calf serum, 2 mM glutamine, and 1% penicillin-streptomycin.
(§3) The assay was performed similarly to the method used in [73]. Cells were seeded in 96-well plates the day before the assay. Cells were treated with the compounds for 48 h, with the exception of L428, where 96 h of treatment was applied. Cells were fixed with 10% trichloroacetic acid (TCA). Fixed cells were washed in distilled water 3 times, followed by staining with SRB (0.4 m/V% dissolved in 1% acetic acid) for 10 min. The stained cells were washed in 1% acetic acid 5 times; the acetic acid was removed, and the cells were left to dry. Protein-bound SRB was released by adding 100 µL 10 mM Tris base. Plates were measured in a plate photometer (Thermo Scientific Multiscan GO spectrophotometer, Waltham, MA, USA) at 540 nm. On each plate, wells were designed to contain untreated cells. In calculations, the readings for these wells were considered as 1 and all readings were expressed relative to these values.
(§4) Statistical analysis was performed using the 8.0.1 version of Graphpad Prism. Values were tested for normal distribution, using the d’Agostino and Pearson normality test. When necessary, values were log-normalized or were normalized using the Box-Cox normalization method or using a two-step transformation, as indicated in the figure captions. Nonlinear regression was performed using the built-in “[Inhibitor] vs. Response—Variable slope (four parameters), least-square fit” utility of Graphpad, yielding the IC50 and Hill slope values.

[3] = test system: A2780 ovarian cancer cells; experiment: MTT reduction assay, 4 h, rapid toxicity, A2780; type: cell-based; conditions: 4 h treatment
Protocol: as §1, §2
The MTT reduction assay measures the activity of mitochondrial complex I and can be used to detect apoptosis and necrosis. The assay was performed similarly to the method used in [72]. Briefly, cells were plated in 96-well plates the day before the assay. Cells were treated with the compounds for 4 h, then MTT was added at 0.5 mg/mL final concentration and the cells were incubated at 37 °C in a cell incubator. The culture media were removed and the reduced MTT dye was dissolved in dimethyl-sulfoxide (DMSO) and plates were measured in a plate photometer (Thermo Scientific Multiscan GO spectrophotometer, Waltham, MA, USA) at 540 nm. On each plate, wells were designed to contain untreated/vehicle-treated cells. In the calculations, the readings for these wells were considered as 1 and all readings were expressed relative to these values.

[4] = test system: ID8 ovarian cancer cell line; design: method as in PMID 34638791; conditions: SRB assay, 48 h; data previously published; cited from earlier work
[5] = design: method as in PMID 34638791; conditions: data previously published; cited from earlier work
[6] = test system: A2780 ovarian cancer cells; design: method as in PMID 34638791; conditions: SRB assay, 48 h; data previously published; cited from earlier work
[7] = test system: Capan2, a pancreatic adenocarcinoma cell line; design: method as in PMID 34638791; conditions: SRB assay, 48 h; data previously published; cited from earlier work
[8] = test system: human primary fibroblasts; design: method as in PMID 34638791; conditions: SRB assay, 48 h, data previously published, cited from earlier work
[9] = test system: human primary fibroblasts; experiment: SRB assay, 48 h, cytostasis, primary fibroblasts; type: cell-based; conditions: MTT 4 h and SRB 48 h
Protocol: The compounds were tested between 0.001694 and 33.3333 µM, using a 4-hour-long MTT test to assess rapid toxicity and a 48-hour-long SRB assay to assess the long-term effects of the inhibition of proliferation (cytostasis). The MTT assay assesses the activity of mitochondrial complex I and detects rapid, direct toxicity, as well as indicating apoptosis and necrosis. The SRB assay measures the total protein content that is proportional to cell numbers; therefore, the assay can detect changes in cell numbers and can thus be used as a readout for cell proliferation. The SRB assay was performed after 48 h of treatment (with the exception of L428 cells, which were tested for 96 h due to their slower proliferation rate). In this setting, the SRB assay informs us of long-term changes to cell proliferation. We assessed the maximal inhibition within that concentration range, and descriptive statistics were performed. We performed a one-way ANOVA, followed by the Kruskal–Wallis test, regardless of the normal or non-normal distribution of the data. […]
The assay was performed similarly to the method used in [73]. […] Plates were measured in a plate photometer (Thermo Scientific Multiscan GO spectrophotometer, Waltham, MA, USA) at 540 nm. […] In calculations, the readings for these wells were considered as 1 and all readings were expressed relative to these values. […]

[10] = test system: ID8 ovarian cancer cell line; experiment: SRB assay, 48 h, cytostasis, ID8; type: cell-based; conditions: 48 h treatment
Protocol: as §1
ID8 cells were cultured in a high-glucose DMEM (4.5 g/L glucose) medium, supplemented with 4% fetal calf serum, 2 mM glutamine, 1% penicillin-streptomycin, and 1% ITS supplement (I3146).
as §3, §4

Compound: Cc1ccc(C(C)C)cc1.F[P-](F)(F)(F)(F)F.O=C(OCC1OC(c2noc(-c3ccccn3)n2)C(OC(=O)c2ccccc2)C(OC(=O)c2ccccc2)C1OC(=O)c1ccccc1)c1ccccc1.[Cl][Ru+] (mixture of isomers) [Ru-1]
- LogD [1]: 2.79
- cytostatic activity on A2780 cells in SRB assay (in words) [2]: neither of them showed considerable activity
- toxicity on A2780 cells in short-term MTT assay (in words) [3]: neither of them showed considerable activity

Compound: Cc1ccc(C(C)C)cc1.F[P-](F)(F)(F)(F)F.OCC1OC(c2noc(-c3ccccn3)n2)C(O)C(O)C1O.[Cl][Ru+] (mixture of isomers) [Ru-2]
- LogD [1]: −0.96
- cytostatic activity on A2780 cells in SRB assay (in words) [2]: neither of them showed considerable activity
- toxicity on A2780 cells in short-term MTT assay (in words) [3]: neither of them showed considerable activity

Compound: Cc1ccc(C(C)C)cc1.F[P-](F)(F)(F)(F)F.O=C(OCC1OC(c2nnc(-c3ccccn3)o2)C(OC(=O)c2ccccc2)C(OC(=O)c2ccccc2)C1OC(=O)c1ccccc1)c1ccccc1.[Cl][Ru+] (mixture of isomers) [Ru-3]
- IC50 [4]: 5.66 µM
- ID8 Max. Inh. (%) [4]: 100%
- LogD [5]: 2.41
- A2780 Max. Inh. (%) [6]: 100%
- IC50 [6]: 6.2 µM and 6.19 µM
- Capan2 Max. Inh. (%) [7]: 100%
- IC50 [7]: 3.27 µM

Compound: Cc1ccc(C(C)C)cc1.F[P-](F)(F)(F)(F)F.O=C(OCC1OC(c2nnc(-c3ccccn3)o2)C(OC(=O)c2ccccc2)C(OC(=O)c2ccccc2)C1OC(=O)c1ccccc1)c1ccccc1.[Cl][Ru+] (mixture of isomers) [Ru-4]
- IC50 [4]: 7.94 µM
- ID8 Max. Inh. (%) [4]: 100%
- LogD [5]: 2.44
- A2780 Max. Inh. (%) [6]: 100%
- IC50 [6]: 4.3 µM and 4.27 µM
- Capan2 Max. Inh. (%) [7]: 100%
- IC50 [7]: 3.82 µM

Compound: Cc1ccc(C(C)C)cc1.F[P-](F)(F)(F)(F)F.O=C(OC1COC(c2nnc(-c3ccccn3)o2)C(OC(=O)c2ccccc2)C1OC(=O)c1ccccc1)c1ccccc1.[Cl][Ru+] (mixture of isomers) [Ru-5]
- IC50 [4]: 6.76 µM
- ID8 Max. Inh. (%) [4]: 100%
- Fibroblast Max. Inh. (%) ([8]; ND = not detected): 80%
- IC50 ([8]; read-out: Fibroblast IC50): 24.6 µM
- LogD [5]: 2.04
- A2780 Max. Inh. (%) [6]: 100%
- IC50 [6]: 8.5 µM and 8.54 µM
- Capan2 Max. Inh. (%) [7]: 100%
- IC50 [7]: 4.97 µM

Compound: Cc1ccc(C(C)C)cc1.F[P-](F)(F)(F)(F)F.O=C(OCC1OC(n2cc(-c3ccccn3)nn2)C(OC(=O)c2ccccc2)C(OC(=O)c2ccccc2)C1OC(=O)c1ccccc1)c1ccccc1.[Cl][Ru+] (mixture of isomers) [Ru-6]
- IC50 [4]: 2.15 µM
- ID8 Max. Inh. (%) [4]: 100%
- LogD [5]: 2.85
- A2780 Max. Inh. (%) [6]: 100%
- IC50 [6]: 0.87 µM
- Capan2 Max. Inh. (%) [7]: 100%
- IC50 [7]: 2.18 µM

Compound: OC[C@H]1O[C@@H](c2noc(-c3ccccn3)n2)[C@H](O)[C@@H](O)[C@@H]1O [Complex L-2, 3-(β-D-Glucopyranosyl)-5-(pyridin-2-yl)-1,2,4-oxadiazole]
- cytostatic activity on A2780 cells in SRB assay (in words) [2]: practically inactive
- toxicity on A2780 cells in short-term MTT assay (in words) [3]: practically inactive

Compound: Cc1c(C)c(C)[c-](C)c1C.Cc1c(C)c(C)[c-](C)c1C.[Cl-].[Cl-].[Cl-].[Cl-].[Ir+3].[Ir+3] [Ir-dimer, dichloro(pentamethylcyclopentadienyl)iridium(III) dimer]
- cytostatic activity on A2780 cells in SRB assay (in words) [2]: inactive
- cytotoxic or cytostatic activity on fibroblasts (in words) [9]: None of the complexes, Ir-1‒Ir-12, or the Ir-dimer exerted cytotoxic or cytostatic activity on fibroblasts
- cytostatic activity on ID8 cells, SRB assay (in words) [10]: inactive

Compound: dichloro(pentamethylcyclopentadienyl)rhodium(III) dimer [Rh-dimer]
- cytostatic activity on A2780 cells in SRB assay (in words) [2]: inactive
- cytotoxic or cytostatic activity on fibroblasts (in words) [9]: None of the complexes Rh-3‒Rh-6 or the Rh-dimer exerted cytotoxic or cytostatic activity on fibroblasts
- cytostatic activity on ID8 cells, SRB assay (in words) [10]: inactive
